# Reference: patent publication US20200207734A1, “HETEROCYCLIC COMPOUND AND USE THEREOF” (Takeda Pharmaceutical Company Limited, priority 2017, published 2020)
# Molecular target: T1, human orexin type 2 receptor (Homo sapiens, UniProt O43614)
# T1 construct: human orexin type 2 receptor cDNA was inserted into pcDNA3.1(+) plasmid vector (Invitrogen); expressed in transfected cells
# T1 sequence (O43614 1-444): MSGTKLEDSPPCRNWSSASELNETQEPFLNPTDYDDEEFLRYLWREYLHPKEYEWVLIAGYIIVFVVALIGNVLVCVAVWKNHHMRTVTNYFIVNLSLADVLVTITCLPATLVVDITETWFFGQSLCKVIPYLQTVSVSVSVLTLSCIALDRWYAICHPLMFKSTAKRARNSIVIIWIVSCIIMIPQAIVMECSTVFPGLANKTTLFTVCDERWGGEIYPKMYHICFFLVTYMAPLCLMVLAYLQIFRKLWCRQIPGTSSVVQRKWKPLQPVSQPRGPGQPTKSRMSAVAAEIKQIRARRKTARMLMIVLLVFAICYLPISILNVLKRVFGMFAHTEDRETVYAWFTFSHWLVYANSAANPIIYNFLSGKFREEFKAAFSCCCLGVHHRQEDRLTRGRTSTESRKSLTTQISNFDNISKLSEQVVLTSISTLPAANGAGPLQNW
# Assay: Measurement of orexin type 2 receptor agonist activity (calcium fluorescence, CHO cells expressing hOX2R)
# Format: cell-based
# Conditions: test compound 3 μM; CHO cells expressing human OX2 receptor; DMSO = 0%, orexin A (human) = 100%
# Source text: To obtain a cell clone stably expressing human orexin type 2 receptor, human orexin type 2 receptor cDNA was inserted into pcDNA3.1(+) plasmid vector (Invitrogen), and a plasmid DNA for expression of human orexin type 2 receptor (pcDNA3.1(+)/hOX2R) was cloned. The plasmid DNA was introduced into CHO-dhfr cell by an electroporation method, and human orexin type 2 receptor expressing clone cells were obtained by limiting dilution method by using G418 drug resistance as a selection marker.
# CHO cells forcibly expressing human OX2 receptor were seeded in each well of 384 well black transparent bottom plate (BD Falcon) at 7,500 cells/well, and cultured for one day in a 5% CO2 incubator at 37° C. After removal of the medium in the cell plate, assay buffer A containing a calcium indicator (HBSS (Thermo Fisher Scientific), 20 mM HEPES (Thermo Fisher Scientific), 0.1% BSA (Wako Pure Chemical Industries, Ltd. or Sigma-Aldrich), 2.5 μg/mL Fluo-4 AM (DOJINDO Chemical), 0.08% Pluronic F127 (DOJINDO Chemical), 1.25 mM probenecid (DOJINDO Chemical)) was added at 30 μL/well. The plate was stood for 30 min in a 5% CO2 incubator at 37° C., and further stood at room temperature for 30 min. A test compound prepared by diluting with assay buffer B (HBSS, 20 mM HEPES, 0.1% BSA) was added at 10 μL/well, and the fluorescence value was measured by FDSSμCELL (Hamamatsu Photonics K.K.) every one sec for 1 min, and thereafter every two sec for 1 min 40 sec. The activity (%) of the test compound was calculated assuming that variation in the fluorescence value when DMSO was added instead of the test compound was 0%, and variation in the fluorescence value when orexin A (human) (PEPTIDE INSTITUTE, INC.) was added at the final concentration of 10 nM was 100%.
row,"OX2R agonist activity (3 μM, %) [%]",Compound
1,81,"CCNC(=O)N1CCC[C@H](NS(C)(=O)=O)[C@@H]1Cc1cccc(Cc2ccccc2)c1 (relative stereo) [Example 1, cis-2-(3-benzylbenzyl)-N-ethyl-3-((methylsulfonyl)amino)piperidine-1-carboxamide]"
2,90,"CCNC(=O)N1CCC[C@H](NS(C)(=O)=O)[C@@H]1Cc1cccc(Cc2cccc(C)c2)c1 (relative stereo) [Example 2, cis-N-ethyl-2-(3-(3-methylbenzyl)benzyl)-3-((methylsulfonyl)amino)piperidine-1-carboxamide]"
3,101,"CCNC(=O)N1CCC[C@H](NS(C)(=O)=O)[C@@H]1Cc1cccc(-c2ccccc2)c1 (relative stereo) [Example 3, cis-2-(biphenyl-3-ylmethyl)-N-ethyl-3-((methylsulfonyl)amino)piperidine-1-carboxamide]"
4,62,"CCNC(=O)N1CCC[C@H](NS(C)(=O)=O)[C@@H]1Cc1cccc(OC2CCCCC2)c1 (relative stereo) [Example 7, cis-2-(3-(cyclohexyloxy)benzyl)-N-ethyl-3-((methylsulfonyl)amino)piperidine-1-carboxamide]"
5,91,"CCNC(=O)N1CCC[C@H](NS(C)(=O)=O)[C@@H]1Cc1cccc(Oc2ccccc2)c1 (relative stereo) [Example 10, cis-N-ethyl-3-((methylsulfonyl)amino)-2-(3-phenoxybenzyl)piperidine-1-carboxamide]"
6,80,"COC(=O)N1CCC[C@H](NS(C)(=O)=O)[C@@H]1Cc1cccc(-c2ccccc2)c1 (relative stereo) [Example 11, methyl cis-2-(biphenyl-3-ylmethyl)-3-((methylsulfonyl)amino)piperidine-1-carboxylate]"
7,82,"COC(=O)N1CCC[C@H](NS(C)(=O)=O)[C@@H]1Cc1cccc(-c2cccc(F)c2)c1 (relative stereo) [Example 14, methyl cis-2-((3′-fluorobiphenyl-3-yl)methyl)-3-((methylsulfonyl)amino)piperidine-1-carboxylate]"
8,60,"CC(=O)N1CCC[C@H](NS(C)(=O)=O)[C@@H]1Cc1cccc(-c2ccccc2)c1 (relative stereo) [Example 22, N-(cis-1-acetyl-2-(biphenyl-3-ylmethyl)piperidin-3-yl)methanesulfonamide]"
9,66,"COC(=O)N1CCC[C@H](NS(C)(=O)=O)[C@@H]1Cc1cccc(N2CCCC2)c1 (relative stereo) [Example 27, methyl cis-3-((methylsulfonyl)amino)-2-(3-(pyrrolidin-1-yl)benzyl)piperidine-1-carboxylate]"
10,98,"CCOC(=O)N1CCC[C@H](NS(C)(=O)=O)[C@@H]1Cc1cccc(-c2ccccc2)c1 (relative stereo) [Example 29, ethyl cis-2-(biphenyl-3-ylmethyl)-3-((methylsulfonyl)amino)piperidine-1-carboxylate]"
11,41,"CCNC(=O)N1CCC[C@H](NS(C)(=O)=O)[C@@H]1Cc1cccc(-c2ccc(C(F)(F)F)cc2)c1 (relative stereo) [Example 35, cis-N-ethyl-3-((methylsulfonyl)amino)-2-((4′-(trifluoromethyl)biphenyl-3-yl)methyl)piperidine-1-carboxamide]"
12,75,"CCOC(=O)N1CCC[C@H](NS(C)(=O)=O)[C@@H]1Cc1cccc(-c2ccccc2)n1 (relative stereo) [Example 38, ethyl cis-3-((methylsulfonyl)amino)-2-((6-phenylpyridin-2-yl)methyl)piperidine-1-carboxylate]"
13,67,"COC(=O)N1CCC[C@H](NS(C)(=O)=O)[C@@H]1Cc1ccc(F)c(-c2ccccc2)c1 (relative stereo) [Example 41, methyl cis-2-((6-fluorobiphenyl-3-yl)methyl)-3-((methylsulfonyl)amino)piperidine-1-carboxylate]"
14,97,"CC(C)OC(=O)N1CCC[C@H](NS(C)(=O)=O)[C@@H]1Cc1cccc(-c2ccccc2)c1 (relative stereo) [Example 50, isopropyl cis-2-(biphenyl-3-ylmethyl)-3-((methylsulfonyl)amino)piperidine-1-carboxylate]"
15,72,"COC(=O)N1CCC[C@H](NS(C)(=O)=O)[C@@H]1Cc1cccc(-c2ccc3c(cnn3C)c2)c1 (relative stereo) [Example 53, methyl cis-2-(3-(1-methyl-1H-indazol-5-yl)benzyl)-3-((methylsulfonyl)amino)piperidine-1-carboxylate]"
16,84,"C=C(C)c1cccc(C[C@H]2[C@@H](NS(C)(=O)=O)CCCN2C(=O)OC)c1 (relative stereo) [Example 55, methyl cis-3-((methylsulfonyl)amino)-2-(3-(prop-1-en-2-yl)benzyl)piperidlne-1-carboxylate]"
17,26,"COC(=O)N1CCC[C@H](NS(C)(=O)=O)[C@@H]1Cc1cccc(C2CCC2)c1 (relative stereo) [Example 60, methyl cis-2-(3-cyclobutylbenzyl)-3-((methylsulfonyl)amino)piperidine-1-carboxylate]"
18,74,"COC(=O)N1CC[C@H](NS(C)(=O)=O)[C@@H]1Cc1cccc(-c2ccccc2)c1 (relative stereo) [Example 61, methyl cis-2-(biphenyl-3-ylmethyl)-3-((methylsulfonyl)amino)pyrrolidine-1-carboxylate]"
19,93,"CCNC(=O)N1CCC[C@H](NS(C)(=O)=O)[C@@H]1Cc1ccccc1Oc1ccccc1 (relative stereo) [Example 62, cis-N-ethyl-3-((methylsulfonyl)amino)-2-(2-phenoxybenzyl)piperidine-1-carboxamide]"
20,24,"CCNC(=O)N1CCC[C@H](NS(C)(=O)=O)[C@@H]1Cc1ccc(Oc2ccccc2)cc1 (relative stereo) [Example 63, cis-N-ethyl-3-((methylsulfonyl)amino)-2-(4-phenoxybenzyl)piperidine-1-carboxamide]"
21,96,"CC(C)OC(=O)N1CCC[C@H](NS(C)(=O)=O)[C@@H]1Cc1cccc(-c2ccccc2)n1 (relative stereo) [Example 64, isopropyl cis-3-((methylsulfonyl)amino)-2-((6-phenylpyridin-2-yl)methyl)piperidine-1-carboxylate]"
22,104,"CC(C)OC(=O)N1CC[C@H](NS(C)(=O)=O)[C@@H]1Cc1cccc(-c2ccccc2)c1 (relative stereo) [Example 74, isopropyl cis-2-(biphenyl-3-ylmethyl)-3-((methylsulfonyl)amino)pyrrolidine-1-carboxylate]"
23,35,"CC(C)OC(=O)N1CCC[C@H](NS(C)(=O)=O)[C@@H]1Cc1cccc2c1oc1ccccc12 (relative stereo) [Example 78, isopropyl cis-2-(dibenzo[b,d]furan-4-ylmethyl)-3-((methylsulfonyl)amino)piperidine-1-carboxylate]"
24,96,"CC(C)OC(=O)N1CCC[C@H](NS(C)(=O)=O)[C@@H]1Cc1csc(-c2ccccc2)n1 (relative stereo) [Example 89, isopropyl cis-3-((methylsulfonyl)amino)-2-((2-phenyl-1,3-thiazol-4-yl)methyl)piperidine-1-carboxylate]"
25,101,"CS(=O)(=O)N[C@H]1CCCN(C(=O)C2CC2)[C@H]1Cc1cccc(-c2ccccc2)c1 (relative stereo) [Example 93, N-(cis-2-(biphenyl-3-ylmethyl)-1-(cyclopropylcarbonyl)piperidin-3-yl)methanesulfonamide]"

row,Compound,"OX2R agonist activity (3 μM, %) [%]"
1,"CCNC(=O)N1CCC[C@H](NS(C)(=O)=O)[C@@H]1Cc1cccc(O[Si](C(C)C)(C(C)C)C(C)C)c1 (relative stereo) [Example 17, cis-N-ethyl-3-((methylsulfonyl)amino)-2-(3-((triisopropylsilyl)oxy)benzyl)piperidine-1-carboxamide]",29
